Reference: patent US20240109898A1, “SUBSTITUTED PYRAZOLO[1,5-A]PYRIMIDINE-7-AMINE DERIVATIVES, COMPOSITIONS AND PHARMACEUTICAL USES THEREOF” (SHANGHAI HAIYAN PHARMACEUTICAL TECHNOLOGY CO., LTD., priority 2021, published 2024)

Legend:
Type in all cases: biochemical
CDK1/CycB = CDK1/CycB (Homo sapiens (Human), UniProt P06493); assay: LANCE Ultra kinase activity inhibition assay, CDK1/CycB; settings: ATP 4 μM, highest compound concentration 10 μM
From the text: (§1) In the following LANCE Ultra test methods, kinase reagents were purchased from Carna Bioscience, reaction substrates and detection reagents were purchased from PerkinElmer, and the remaining reagents were purchased from Thermo scientific.
(§2) The assay for each kinase includes three test groups, i.e., a background group (Blank), a non-inhibition group (PC), and compound testing group (Test). The components included in each test group were as follows:
(§3) Working concentrations of the respective components of the Test groups in different kinase reactions were as follows.
(§4) Compounds: 10 mM of the compound to be tested was dissolved at room temperature and diluted with DMSO to gradient concentrations, followed by diluting with deionized water to prepare a 4× working solution of the compound, and the content of DMSO was 2%. The highest concentration of compound used in the CDK1 and CDK2 assays was 10 μM, and that in CDK9 assay was 1 μM.
(§5) The working concentration of DMSO in the reaction was 0.5%.
(§6) The above-mentioned components, after being mixed, were placed on a shaker and incubated at room temperature in the dark for 1 h. 10 μL of test solution was then added to all test groups (including Blank, PC and Test groups).
(§7) After the test solution was added, the solution was placed on a shaker and continually incubated at room temperature for 1 h in the dark. […] The inhibition rate was calculated as below.
(§8) 2. Inhibition rate=(PCRatio-TestRatio)/(PCRatio-BlankRatio)*100%; and
(§9) 3. XLFIT 5.0 software (IDBS, UK) was used to fit a graph by using the logarithmic value of the compound concentration as the X-axis and the inhibition rater as the Y-axis, and a four-parameter model was used to calculate the half inhibitory concentration IC50 of the compound.

CDK9/CycT = CDK9/CycT (Homo sapiens (Human), UniProt P50750); assay: LANCE Ultra kinase activity inhibition assay, CDK9/CycT; settings: ATP 10 μM, highest compound concentration 1 μM
Protocol: as §1
The inhibiting effects on the kinase activity of CDK1/CycB (Carna bioscience, #04-102), CDK2/CycA (Carna bioscience, #04-103) and CDK9/CycT (Carna bioscience, #04-110) were determined by using LANCE Ultra method.
The kinase activity test was performed using a system (10 μL) containing the following components: substrate diluent prepared by mixing CDK kinase diluent, Ulight-Myelic basic protein (Perkin Elmer, #TRF-0109, hereinafter referred to as U-MBP) and ATP (Thermo scientific, #PV3227); and the compounds (i.e., analyte) prepared in the examples of the present disclosure. The assay for each kinase includes three test groups, i.e., a background group (Blank), a non-inhibition group (PC), and compound testing group (Test). The components included in each test group were as follows:
as §3, §4
1.33×reaction buffer: the components include 26.7 mM of MOPS, 6.67 mM of MgCl2, and 0.0133% Tween-20, which were stored in a 4° C. refrigerator and protected from light after preparation. Freshly prepared DTT was added to a final concentration of 5.33 mM before use.
as §5, §6
10 μL of test solution contains the following components: 16 mM of EDTA (Thermo scientific, #15575), 1 nM of phosphorylated U-MBP protein antibody (Perkin Elmer, #TRF-0201), and 1× detection damping fluid (Perkin Elmer, #CR97-100).
After the test solution was added, the solution was placed on a shaker and continually incubated at room temperature for 1 h in the dark. At the end of incubation, Victor X5 fluorescence microplate reader of Perkin Elmer was used to read the signal; the wavelength of excitation light was 320 nm, and the wavelengths of emission light were 615 nm and 665 nm. The inhibition rate was calculated as below.
1. For all groups, a value of 665 nm/615 nm (hereinafter referred to as Ratio) was calculated, and an inhibition rate was calculated based on the Ratio of each group;
as §8, §9

CDK2/CycA = CDK2/CycA (Homo sapiens (Human), UniProt P24941); assay: LANCE Ultra kinase activity inhibition assay, CDK2/CycA; settings: ATP 10 μM, highest compound concentration 10 μM
From the text: as §1, §2, §3, §4, §5, §6, §7, §8, §9

CDK1/CycB, sequence (P06493 whole entry): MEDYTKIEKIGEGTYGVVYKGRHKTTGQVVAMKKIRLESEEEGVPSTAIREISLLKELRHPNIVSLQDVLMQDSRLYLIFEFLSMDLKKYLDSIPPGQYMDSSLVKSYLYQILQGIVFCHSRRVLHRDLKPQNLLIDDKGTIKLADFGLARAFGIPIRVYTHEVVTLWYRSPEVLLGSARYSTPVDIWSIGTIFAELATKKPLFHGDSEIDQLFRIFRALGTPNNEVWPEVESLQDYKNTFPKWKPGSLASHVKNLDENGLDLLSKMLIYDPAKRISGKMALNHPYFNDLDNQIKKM
CDK1/CycB, sequence (P14635 whole entry partner): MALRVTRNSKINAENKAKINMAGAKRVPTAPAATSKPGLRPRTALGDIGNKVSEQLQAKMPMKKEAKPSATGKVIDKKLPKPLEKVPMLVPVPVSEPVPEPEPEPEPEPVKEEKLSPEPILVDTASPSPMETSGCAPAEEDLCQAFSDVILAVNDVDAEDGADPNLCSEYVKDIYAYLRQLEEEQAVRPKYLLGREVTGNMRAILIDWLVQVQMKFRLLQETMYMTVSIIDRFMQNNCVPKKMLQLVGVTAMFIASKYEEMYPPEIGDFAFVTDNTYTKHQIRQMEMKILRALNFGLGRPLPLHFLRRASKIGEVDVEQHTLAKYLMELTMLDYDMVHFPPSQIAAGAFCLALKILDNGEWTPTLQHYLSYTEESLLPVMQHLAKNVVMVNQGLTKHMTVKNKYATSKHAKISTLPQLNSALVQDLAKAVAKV
CDK9/CycT, sequence (P50750 whole entry): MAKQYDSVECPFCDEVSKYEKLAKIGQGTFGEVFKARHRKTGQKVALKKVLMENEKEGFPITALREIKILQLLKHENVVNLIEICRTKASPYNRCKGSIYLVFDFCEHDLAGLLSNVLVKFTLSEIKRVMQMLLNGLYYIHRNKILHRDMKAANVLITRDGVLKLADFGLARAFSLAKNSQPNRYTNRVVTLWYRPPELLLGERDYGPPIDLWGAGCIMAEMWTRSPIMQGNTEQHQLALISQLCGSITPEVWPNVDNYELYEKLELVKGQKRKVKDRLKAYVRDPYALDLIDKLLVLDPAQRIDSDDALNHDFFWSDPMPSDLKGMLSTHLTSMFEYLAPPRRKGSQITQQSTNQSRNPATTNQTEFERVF
CDK9/CycT, sequence (O60563 whole entry partner): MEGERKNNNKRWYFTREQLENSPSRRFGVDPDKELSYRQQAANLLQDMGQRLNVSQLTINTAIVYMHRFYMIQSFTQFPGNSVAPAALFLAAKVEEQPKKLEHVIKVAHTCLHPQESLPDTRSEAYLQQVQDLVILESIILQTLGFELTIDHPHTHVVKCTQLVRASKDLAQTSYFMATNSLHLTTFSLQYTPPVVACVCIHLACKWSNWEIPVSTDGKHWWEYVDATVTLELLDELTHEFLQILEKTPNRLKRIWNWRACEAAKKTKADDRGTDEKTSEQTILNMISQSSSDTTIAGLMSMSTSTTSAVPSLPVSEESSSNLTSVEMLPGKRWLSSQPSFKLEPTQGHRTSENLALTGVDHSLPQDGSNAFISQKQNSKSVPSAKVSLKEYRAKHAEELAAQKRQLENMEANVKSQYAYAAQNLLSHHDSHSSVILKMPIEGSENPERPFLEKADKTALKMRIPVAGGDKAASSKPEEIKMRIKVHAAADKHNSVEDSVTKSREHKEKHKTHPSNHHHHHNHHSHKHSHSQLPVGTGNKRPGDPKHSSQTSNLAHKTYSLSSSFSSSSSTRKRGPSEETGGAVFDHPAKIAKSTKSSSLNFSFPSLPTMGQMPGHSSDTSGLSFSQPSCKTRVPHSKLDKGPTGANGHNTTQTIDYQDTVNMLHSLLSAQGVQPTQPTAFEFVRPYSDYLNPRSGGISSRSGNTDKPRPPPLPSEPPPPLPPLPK

Structure (SMILES) | IC50 (CDK1/CycB) | IC50 (CDK9/CycT) | IC50 (CDK2/CycA)
CCC(c1cc(N[C@H]2CC[C@H](N)C2)n2ncc(C)c2n1)C1CC1 (stereo partly drawn) [Compound Z-30] | 1.36 µM | 0.01 µM | 1.55 µM
CC(c1cc(NC2CCNC2)n2ncc(F)c2n1)C1CC1 (stereo not drawn) [Compound Z-31] | 3.21 µM | 0.104 µM | 6.39 µM
Cc1cnn2c(N[C@H]3CC[C@H](N)C3)cc([C@H](C)C3CC3)nc12 [Compound Z-32-P1] | > 10 µM | 0.099 µM | > 10 µM
Cc1cnn2c(N[C@H]3CC[C@H](N)C3)cc(C(C)C3CC3)nc12 (stereo partly drawn) [Compound Z-32] | 0.996 µM | 0.009 µM | 0.967 µM
N[C@H]1CC[C@H](Nc2cc(C(C3CC3)C3CC3)nc3c(C(F)(F)F)cnn23)C1 [Compound Z-33] | 0.347 µM | 0.006 µM | 0.355 µM
Cc1cnn2c(N[C@H]3CC[C@H](N)C3)cc(C(C)(C)C3CC3)nc12 [Compound Z-34] | 8.09 µM | 0.036 µM | > 10 µM
CC(C)(c1cc(N[C@H]2CC[C@H](N)C2)n2ncc(Cl)c2n1)C1CC1 [Compound Z-35] | 1.5 µM | 0.018 µM | 1.56 µM
CC(C)(c1cc(N[C@H]2CC[C@H](N)C2)n2ncc(F)c2n1)C1CC1 [Compound Z-36] | 0.924 µM | 0.006 µM | 2.11 µM
N[C@H]1CC[C@H](Nc2cc(C(F)(F)C3CC3)nc3ccnn23)C1 [Compound Z-37] | 7.18 µM | 0.027 µM | > 10 µM
CC(C)(c1cc(N[C@H]2CC[C@H](N)C2)n2nccc2n1)C1CCC1 [Compound Z-39] | 2.48 µM | 0.034 µM | > 10 µM
Cc1cnn2c(N[C@H]3CC[C@H](N)C3)cc(C(C)(C)C3CCC3)nc12 [Compound Z-40] | > 10 µM | 0.048 µM | > 10 µM
N[C@H]1CC[C@H](Nc2cc([C@@H](F)C3CCC3)nc3ccnn23)C1 [Compound Z-41-P1] | 4.59 µM | 0.047 µM | > 10 µM
N[C@H]1CC[C@H](Nc2cc([C@H](F)C3CCC3)nc3ccnn23)C1 [Compound Z-41-P2] | 2.97 µM | 0.013 µM | 3.77 µM
N[C@H]1CC[C@H](Nc2cc(C(F)C3CCCC3)nc3ccnn23)C1 (stereo partly drawn) [Compound Z-42] | 3.3 µM | 0.022 µM | 8.5 µM
CCC(c1cc(N[C@H]2CC[C@H](N)C2)n2nccc2n1)C1CCC1 (stereo partly drawn) [Compound Z-43] | 7.1 µM | 0.056 µM | > 10 µM
COC[C@H](c1cc(N[C@H]2CC[C@H](N)C2)n2nccc2n1)C1CC1 [Compound Z-44] | > 10 µM | 0.082 µM | > 10 µM
CC(C)(c1cc(N[C@H]2CC[C@H](N)C2)n2ncc(Cl)c2n1)C1CCC1 [Compound Z-46] | 1.15 µM | 0.01 µM | 1.81 µM
CC(c1cc(NC2CCN(N)C2)n2ncc(Cl)c2n1)C1CC1 (stereo not drawn) [Compound Z-47] | 1.04 µM | 0.035 µM | 1.91 µM

Structure (SMILES) | IC50 (CDK1/CycB) | IC50 (CDK9/CycT) | IC50 (CDK2/CycA)
CC(c1cc(NC2CCN(N)C2)n2ncc(Cl)c2n1)C1CC1 (stereo not drawn) [Compound Z-48] | 1.47 µM | 0.068 µM | 2.22 µM
COC(c1cc(N[C@H]2CC[C@H](N)C2)n2nccc2n1)C1CC1 (stereo partly drawn) [Compound Z-49] | > 10 µM | 0.062 µM | > 10 µM
N[C@H]1CC[C@H](Nc2cc(CC3CCC3)nc3ccnn23)C1 [Compound Z-50] | 6.57 µM | 0.064 µM | > 10 µM
Cc1cnn2c(N[C@H]3CC[C@H](N)C3)cc(CC3CCC3)nc12 [Compound Z-51] | 7.76 µM | 0.065 µM | 7.75 µM
Cc1cnn2c(N[C@H]3CC[C@H](N)C3)cc(CC3CC3)nc12 [Compound Z-52] | 7.15 µM | 0.032 µM | 6.15 µM
N[C@H]1CC[C@H](Nc2cc(C(F)C3CC3)nc3ccnn23)C1 (stereo partly drawn) [Compound Z-53] | 4.86 µM | 0.047 µM | > 10 µM
N[C@H]1CC[C@H](Nc2cc(CC3CC3)nc3c(F)cnn23)C1 [Compound Z-54] | 2.16 µM | 0.016 µM | 2.65 µM
N[C@H]1CC[C@H](Nc2cc(CC3CC3)nc3c(Cl)cnn23)C1 [Compound Z-55] | 1.94 µM | 0.015 µM | 1.91 µM
C=CCC(C)(C)c1cc(N[C@H]2CC[C@H](N)C2)n2nccc2n1 [Compound Z-57] | 4.97 µM | 0.058 µM | > 10 µM
C=CC(C)(C)c1cc(N[C@H]2CC[C@H](N)C2)n2ncc(F)c2n1 [Compound Z-58] | 5.31 µM | 0.02 µM | > 10 µM
C=Cc1cnn2c(N[C@H]3CC[C@H](N)C3)cc(C(C)C3CC3)nc12 (stereo partly drawn) [Compound Z-60] | 2.49 µM | 0.024 µM | 3.2 µM
C[C@@H](c1cc(N[C@H]2C[C@H](N)C2)n2nccc2n1)C1CC1 [Compound Z-62-P2] | 1.82 µM | 0.024 µM | > 10 µM
CC(c1cc(N[C@H]2C[C@H](N)C2)n2nccc2n1)C1CC1 (stereo partly drawn) [Compound Z-62] | 1.54 µM | 0.017 µM | 4.72 µM
CC(=O)N[C@H]1CC[C@H](Nc2cc(C(C)C3CC3)nc3c(Cl)cnn23)C1 (stereo partly drawn) [Compound Z-63] | 0.84 µM | 0.014 µM | 0.278 µM
CC(=N)N[C@H]1CC[C@H](Nc2cc(C(C)C3CC3)nc3c(Cl)cnn23)C1 (stereo partly drawn) [Compound Z-64] | 2.31 µM | 0.015 µM | 3.46 µM
CC(c1cc(N[C@H]2CC[C@H](NC(=N)N)C2)n2ncc(Cl)c2n1)C1CC1 (stereo partly drawn) [Compound Z-65] | 1.24 µM | 0.019 µM | 2.3 µM
CC(=N)N[C@H]1CC[C@H](Nc2cc(C(C3CC3)C3CC3)nc3c(Cl)cnn23)C1 [Compound Z-66] | 0.995 µM | 0.018 µM | 0.332 µM
CCC(c1cc(N[C@H]2CC[C@H](NC(=N)N)C2)n2nccc2n1)C1CC1 (stereo partly drawn) [Compound Z-67] | 4.59 µM | 0.044 µM | > 10 µM
